According to patent US10770169B2, “Method of providing a treatment to a subject based on a dynamic pathway map” (THE REGENTS OF THE UNIVERSITY OF CALIFORNIA, priority 2010, dated 2020):

System: panel of 55 breast cancer cell lines
Test: Cell growth inhibition assay (Cell Titer Glo, 72 h, 9 doses; GI50, TGI, LC50)
Format: cell-based, human
Conditions: for GI50: value is the negative log10 of mol/L

COc1ccc(C2=N[C@@H](c3ccc(Cl)cc3)[C@@H](c3ccc(Cl)cc3)N2C(=O)N2CCNC(=O)C2)c(OC(C)C)c1 [Nutlin 3a]
GI50 (cell line 600MPE): 4.32 | GI50 (cell line AU565, censored GI50 values): 4.79 | GI50 (cell line AU565): 4.79 | GI50 (cell line BT20, censored GI50 values): 4.47 | GI50 (cell line BT20): 4.47 | GI50 (cell line BT474, censored GI50 values): 4.39 | GI50 (cell line BT474): 4.39 | GI50 (cell line BT483, censored GI50 values): 5.19 | GI50 (cell line BT483): 5.19 | GI50 (cell line BT549): 4.35 | GI50 (cell line CAMA1): 4.30 | GI50 (cell line HCC38, censored GI50 values): 4.66 | GI50 (cell line HCC38): 4.66 | GI50 (cell line HCC70, censored GI50 values): 4.73 | GI50 (cell line HCC70): 4.73 | GI50 (cell line HCC202, censored GI50 values): 5.02 | GI50 (cell line HCC202): 5.02 | GI50 (cell line HCC1143, censored GI50 values): 4.67 | GI50 (cell line HCC1143): 4.67 | GI50 (cell line HCC1187, censored GI50 values): 4.68 | GI50 (cell line HCC1187): 4.68 | GI50 (cell line HCC1395, censored GI50 values): 4.65 | GI50 (cell line HCC1395): 4.65 | GI50 (cell line HCC1419, censored GI50 values): 4.39 | GI50 (cell line HCC1419): 4.39 | GI50 (cell line HCC1428, censored GI50 values): 4.50 | GI50 (cell line HCC1428): 4.50 | GI50 (cell line HCC1500, censored GI50 values): 4.57 | GI50 (cell line HCC1500): 4.57 | GI50 (cell line HCC1806): 4.29 | GI50 (cell line HCC1937, censored GI50 values): 4.63 | GI50 (cell line HCC1937): 4.63 | GI50 (cell line HCC1954, censored GI50 values): 4.76 | GI50 (cell line HCC1954): 4.76 | GI50 (cell line HCC2185, censored GI50 values): 4.81 | GI50 (cell line HCC2185): 4.81 | GI50 (cell line HCC3153, censored GI50 values): 4.44 | GI50 (cell line HCC3153): 4.44 | GI50 (cell line LY2, censored GI50 values): 5.35 | GI50 (cell line LY2): 5.35 | GI50 (cell line MCF7, censored GI50 values): 5.24 | GI50 (cell line MCF7): 5.24 | GI50 (cell line MDAMB134V): 4.76 | GI50 (cell line MDAMB134VI, censored GI50 values): 4.76 | GI50 (cell line MDAMB157, censored GI50 values): 4.45 | GI50 (cell line MDAMB157): 4.45 | GI50 (cell line MDAMB175V): 5.08 | GI50 (cell line MDAMB175VII, censored GI50 values): 5.08 | GI50 (cell line MDAMB231): 4.18 | GI50 (cell line MDAMB361): 4.23 | GI50 (cell line MDAMB415, censored GI50 values): 4.59 | GI50 (cell line MDAMB415): 4.59 | GI50 (cell line MDAMB436): 4.30 | GI50 (cell line MDAMB453): 4.32 | GI50 (cell line MDAMB468, censored GI50 values): 4.44 | GI50 (cell line MDAMB468): 4.44 | GI50 (cell line SKBR3): 4.32 | GI50 (cell line SUM52PE, censored GI50 values): 4.73 | GI50 (cell line SUM52PE): 4.73 | GI50 (cell line SUM149PT, censored GI50 values): 4.56 | GI50 (cell line SUM149PT): 4.56 | GI50 (cell line SUM159PT, censored GI50 values): 4.78 | GI50 (cell line SUM159PT): 4.78 | GI50 (cell line SUM185PE, censored GI50 values): 4.54 | GI50 (cell line SUM185PE): 4.54 | GI50 (cell line SUM225CWN, censored GI50 values): 4.69 | GI50 (cell line SUM225CWN): 4.69 | GI50 (cell line SUM1315MO2, censored GI50 values): 4.67 | GI50 (cell line SUM1315MO): 4.67 | GI50 (cell line T47D, censored GI50 values): 4.51 | GI50 (cell line T47D): 4.51 | GI50 (cell line UACC812, censored GI50 values): 4.45 | GI50 (cell line UACC812): 4.45 | GI50 (cell line UACC893, censored GI50 values): 4.69 | GI50 (cell line UACC893): 4.69 | GI50 (cell line ZR75B, censored GI50 values): 5.69 | GI50 (cell line ZR75B): 5.69 | GI50 (cell line ZR751, censored GI50 values): 5.51 | GI50 (cell line ZR751): 5.51

COc1cccc(-c2cc(=O)c3ccccc3o2)c1N [PD 98059]
GI50 (AU565 cell line, censored GI50 values): 5.12 | GI50 (CAMA1 cell line, censored GI50 values): 4.65 | GI50 (HCC1187 cell line, censored GI50 values): 5.56 | GI50 (HCC1937 cell line, censored GI50 values): 4.50 | GI50 (cell line 600MPE): 4.30 | GI50 (cell line AU565): 5.12 | GI50 (cell line BT20): 4.04 | GI50 (cell line BT474): 4.00 | GI50 (cell line BT483): 4.12 | GI50 (cell line CAMA1): 4.65 | GI50 (cell line HCC70): 4.30 | GI50 (cell line HCC1143): 4.00 | GI50 (cell line HCC1187): 5.56 | GI50 (cell line HCC1395): 4.00 | GI50 (cell line HCC1419): 4.20 | GI50 (cell line HCC1428): 4.12 | GI50 (cell line HCC1806): 4.30 | GI50 (cell line HCC1937): 4.50 | GI50 (cell line HCC1954): 4.30 | GI50 (cell line HCC2185): 4.55 | GI50 (cell line MDAMB134V): 4.12 | GI50 (cell line MDAMB175V): 4.24 | GI50 (cell line MDAMB361): 4.30 | GI50 (cell line MDAMB468): 4.32 | GI50 (cell line SKBR3): 4.73 | GI50 (cell line SUM52PE): 4.92 | GI50 (cell line SUM149PT): 4.44 | GI50 (cell line SUM159PT): 4.30 | GI50 (cell line SUM185PE): 4.88 | GI50 (cell line SUM225CWN): 4.42 | GI50 (cell line SUM1315MO): 4.30 | GI50 (cell line T47D): 4.30 | GI50 (cell line UACC812): 4.27 | GI50 (cell line ZR75B): 4.00 | GI50 (cell line ZR751): 4.32

O=C(Nc1cc(Cl)cc2c1[nH]c1cnccc12)c1cccnc1 [PS1145]
variability in cell line response (across the cell line panel): variability in cell line response was minimal
